Reference: US20260273046A1, “METHOD OF VACCINATING FOR CANCER AND DEVICE AND KIT THEREFOR” (priority 2023, published 2026)

How the values were obtained:
B16-OVA tumors = experiment: Therapeutic intradermal vaccination of B16-OVA-bearing mice; format: in vivo, C57BL/6J mice; settings: i.d. vaccination at 8 and 15 days post-tumor inoculation
Protocol: (§4) To mimic therapeutic immunotherapy, C57BL/6J mice were injected subcutaneously (s.c.) with 1.0×10^6 B16-OVA or 2.5×10^6 E.G7-OVA cells on day 0 to establish the tumor model. The B16-OVA-bearing mice received the same intradermal prophylactic vaccination (OVA, Nano-11+OVA, or NanoST+OVA) 8 days after tumor inoculation, followed by a second injection on day 15. The identical vaccination regimen was administered to E.G7-OVA-26 bearing mice at 1 and 21 days after tumor inoculation. The tumor endpoint measurements were recorded as described under prophylactic cancer vaccines. Mice without visible tumors were deemed tumor-free and euthanized 32 or 33 days post-tumor inoculation.

E.G7-OVA tumors = experiment: Therapeutic intradermal vaccination of E.G7-OVA-bearing mice; settings: by day 10
Protocol: as §4

E.G7-OVA lymphoma cells = experiment: Preventive intradermal vaccination, E.G7-OVA tumor challenge; format: in vivo, C57BL/6J mice; settings: two i.d. immunizations, three-week interval, then s.c. inoculation
Protocol: (§5) The efficacy of preventive cancer vaccines was investigated by two intradermal injections with OVA, Nano-11+OVA, NanoST+OVA, or PBS with a 21-day interval. Eleven days following the second injection, mice were inoculated subcutaneously in the flank with 1.0×10^6 B16-OVA, B16, or 2.5×10^6 E.G7-OVA cells suspended in 100 μl of PBS. […] Using a caliper, the length (maximum longitudinal dimension) and width (maximum transverse dimension) of the subcutaneous tumor were measured in order to determine the approximate volume. Tumor volume was calculated using the ellipsoidal formula: V=½×(Length×Width^2). Each tumor was measured by three observers to account for interobserver variability. The tumor endpoint measurements were taken when the tumors reached a volume of 2,000 mm^3, when the tumors became ulcerated, when the body condition scores dropped below 2, or when the mice became moribund. Mice without palpable tumors 32 days after tumor inoculation were considered tumor-free and euthanized.
(§6) To evaluate the contribution of CD4^+ and CD8^+ T cells response to prophylactic-mediated vaccine protection against B16-OVA and E.G7-OVA tumor formation, C57BL/6J mice were vaccinated with OVA, Nano-11+OVA, or NanoST+OVA, and 21 days later the vaccination was repeated. […] The tumor growth and survival of mice were monitored for 33 days post-tumor inoculation.

B16-OVA melanoma cells = experiment: Preventive intradermal vaccination, B16-OVA tumor challenge; format: in vivo, C57BL/6J mice; settings: two i.d. immunizations, three-week interval, then s.c. inoculation
Protocol: as §5, §6

[1] = tested on: recurrent or metastatic head and neck squamous cell carcinoma; settings: in conjunction with pembrolizumab; cited from earlier work
[2] = tested on: SIINFEKL-specific B3Z CD8+ T cell hybridoma; experiment: B3Z antigen cross-presentation assay with DC2.4 cells; format: cell-based, murine; settings: OVA with 80 μg/ml Nano-11 and/or 5 μg/ml ADU-S100; OD 590
Protocol: The B3Z CD8^+ T cell hybridoma cell line that expresses β-galactosidase under the control of the IL-2 promoter was utilized to detect antigen cross-presentation of the OVA 257-264 (SIINFEKL, InvivoGen, San Diego, CA) peptide (see Cruz et al., Annu. Rev. Immunol. 35: 149-176 (2017), which is incorporated herein by reference). Briefly, DC2.4 cells at 1×10^5 cells/well on 96-well round bottom plates were cultured in complete RPMI containing 10% FBS. The DC2.4 cells were stimulated with 10, 100, or 1,000 μg/ml OVA adsorbed to 80 μg/ml Nano-11 or the NanoST nanoparticle adjuvant comprised of 80 μg/ml Nano-11 and 5 μg/ml ADU-S100 (NanoST) for 3 hours at 37° C. with 5% CO2. Cells in media only or treated with 0.5 μg/ml OVA 257-264 (SIINFEKL) served as negative and positive controls, respectively. The cells were centrifuged at 300×g for 5 minutes and then washed three times with 200 μl of sterile PBS/0.1% BSA. Following fixation with 200 μl of phosphate-buffered saline (PBS)/0.2% paraformaldehyde for 15 minutes at 4° C., cells were washed twice with complete RPMI. Each well was seeded with 1×10^5 B3Z cells in complete RPMI containing 10% FBS for 16 hours at 37° C. with 5% CO2. […] After 2, 4, 6, 8, 12, and 24 hours, the conversion of […] was quantified by measuring the absorbance at 590 nm (OD 590) using a microplate reader (BioTek Instruments, Winooski, VT).

IRF3 signaling pathway = experiment: IRF-Lucia luciferase reporter in THP1-Dual cells; format: cell-based, human; settings: Nano-11 80 μg/ml, ADU-S100 5 μg/ml; FIG. 1F
Protocol: (§1) For preparation of cells for activation in vitro, human THP-1 cells (TIB-202; American Type Culture Collection Manassas, VA) were cultured in complete RPMI (RPMI 1640 supplemented with 2 mM L-glutamine, 55 μM β-mercaptoethanol, 1×non-essential amino acids, 10 mM HEPES, 100 U/ml penicillin, 100 μg/ml streptomycin, and 0.25 μg/ml amphotericin) with 10% FBS. Cells were seeded at a density of 5×10^5 cells/well in a 96-well plate, stimulated with Nano-11 (80 μg/ml) and ADU-S100 (5 μg/ml) for 24 hours and 48 hours at 37° C. with 5% CO2, and then processed for flow cytometry analysis. Similarly, the NF-κB-SEAP and IRF-Luc reporter THP1-Dual cells (InvivoGen, San Diego, CA) were grown at a density of 1×10^5 cells/well in a 96-well plate in complete RPMI supplemented with 10% FBS, 100 μg/ml zeocin, 100 μg/ml normocin, and 10 μg/ml blasticidin. THP1-Dual cells were subsequently stimulated with Nano-11 (80 μg/ml) and ADU-S100 (5 μg/ml) for 24 hours and 48 hours at 37° C. with 5% CO2, and the supernatants were collected for NF-κB and IRF pathway activation quantification.

human THP-1 cells = experiment: CD80 and CD86 expression on stimulated THP-1 cells (flow cytometry); format: cell-based; settings: Nano-11 80 μg/ml, ADU-S100 5 μg/ml, 24 and 48 hours
Protocol: as §1, with “Similarly, the NF-κB-SEAP and IRF-Luc reporter THP1-Dual cells (InvivoGen, San Diego, CA) were grown at a density of 1×10^5 cells/well in a 96-well plate in complete RPMI supplemented with 10% FBS, 100 μg/ml zeocin, 100 μg/ml normocin, and 10 μg/ml blasticidin.” left out
(§2) For flow cytometry analysis, single-cell suspensions were prepared from isolated splenocytes or lymph nodes and washed with Cell Staining Buffer (CSB; BioLegend, San Diego, CA). […] Flow cytometry was conducted using an Attune NxT flow cytometer (Invitrogen, Waltham, MA), and the data were analyzed using FlowJo software (FlowJo, Ashland, OR).

[3] = tested on: metastatic solid tumors or lymphomas; settings: intra-tumoral injection, patients; cited from earlier work
OVA = experiment: ELISA of serum OVA-specific IgG, IgG1, IgG2c titers; format: in vivo, C57BL/6J mice; settings: 10 days after second i.d. vaccination with OVA
Protocol: (§3) For all experiments, six- to eight-week-old female C57BL/6J mice were purchased from the Jackson Laboratory (Bar Harbor, ME). They were housed in ventilated cages with ad libitum access to food and water, with three to four animals per box. The room was kept at 20±2° C. and 50±15% relative humidity, with a light/dark cycle of 12 hours. An acclimatization period of one week was given to the mice before the onset of the experiments. The Purdue University Animal Care and Use Committee gave approval to all animal experiments. Mice received 20 μl of vaccine through intradermal injection into the pinna of the ear. The vaccines were administered again after 7 or 21 days. Inhalational isoflurane was used to induce anesthesia in mice. Blood and tissue samples were collected 10 days after the second immunization, unless otherwise specified.
OVA-specific IgG, IgG1, and IgG2c titers were measured by enzyme-linked immunosorbent assays (ELISA) on serum samples taken 10 days following the second vaccination, as previously reported (Hernandez-Franco (2021)). […] The reaction was stopped with the addition of 50 μl 2 M sulfuric acid, and absorbance at 450 nm (OD 450) was determined using the Synergy HT microplate reader (BioTek, Winooski, VT). End-point titers for OVA-specific antibodies were determined when the dilution at which OD 450 nm approached 0.2. […]

NF-κB signaling pathway = experiment: NF-κB-SEAP reporter in THP1-Dual cells; format: cell-based, human; settings: Nano-11 80 μg/ml, ADU-S100 5 μg/ml; FIG. 1E
Protocol: as §1

human STING alleles = settings: cited from earlier work
[4] = tested on: tumor-specific CD8+ T cells; settings: intratumoral injection; cited from earlier work
[5] = tested on: GC B cells and follicular helper T (Tfh) cells; experiment: Intradermal immunization with OVA: draining lymph node, GC B cells and Tfh cells; format: in vivo, C57BL/6J mice; settings: 10 days after second i.d. injection of the ear pinna
Protocol: as §3
as §2, with “CA). The staining protocols were conducted in accordance with the manufacturer's instructions, and unless otherwise specified, all mAbs were obtained from BioLegend.” for “CA).”

| Molecule | survival of B16-OVA tumor-bearing mice (B16-OVA tumors) | tumor formation (E.G7-OVA tumors) | development of E.G7-OVA lymphomas (E.G7-OVA lymphoma cells) | development of B16-OVA tumors (B16-OVA melanoma cells) | adverse reactions [1] | anti-tumor efficacy [1] | cross-presentation of OVA and activation of B3Z CD8+ T cells by DC2.4 cells [2] | IRF3 activation (IRF3 signaling pathway) | CD80 expression (human THP-1 cells; FIGS. 1A, 1C) | CD86 expression (human THP-1 cells; FIGS. 1B, 1D) | anti-tumor activity [3] | dose-limiting toxicities [3] | anti-OVA IgG1 titer (OVA) | anti-OVA total IgG titer (OVA) | NF-κB activation (NF-κB signaling pathway) | affinity to human STING alleles (human STING alleles) | generation of tumor-specific CD8+ T cells [4] | size of draining lymph node (superficial parotid) [5] |
| --- | --- | --- | --- | --- | --- | --- | --- | --- | --- | --- | --- | --- | --- | --- | --- | --- | --- | --- |
| OVA: endotoxin-free ovalbumin, model tumor-specific antigen, given unadjuvanted | none of the OVA-vaccinated mice survived to day 20 | 100% | positive for tumors | positive for tumors |  |  |  |  |  |  |  |  |  |  |  |  |  |  |
| Nc1ncnc2c1ncn2[C@@H]1O[C@@H]2COP(=O)([S-])O[C@@H]3[C@H](O)[C@@H](COP([O-])(=S)O[C@H]2[C@H]1O)O[C@H]3n1cnc2c(N)ncnc21.[Na+].[Na+] (stereo partly drawn) [ADU-S100] |  |  |  |  | no adverse reactions | only modest anti-tumor efficacy | decreased the cross-presentation of OVA | activated NF-κB and IRF3 | induced CD80 expression | neither of which had any effect on CD86 expression | failed to demonstrate conclusive evidence of anti-tumor activity | no dose-limiting toxicities | enhanced anti-OVA total IgG and IgG1 titers | enhanced anti-OVA total IgG and IgG1 titers | activated NF-κB and IRF3 | superior affinity to all known human STING alleles | leads to the generation of tumor-specific CD8 | enlarged draining lymph node |
